Test results from paper PMC6186272 (Stem Cells Translational Medicine, 2018).

Assays:
[1] = system: IMR‐90 cells; test: Monolayer cardiac differentiation, IMR-90 cells; type: cell-based, human; settings: 5 μM (IWR-1: 2.5 μM), days 3–5, day 13
[2] = system: Wnt/β‐catenin pathway
[3] = system: H1 cells; test: Monolayer cardiac differentiation, H1 cells; type: cell-based, human; settings: days 3–5, day 13; for NKX2‐5/cTnT‐positive cells: H1, 5 μM (IWR-1: 2.5 μM); for Cardiac differentiation in H1 cells: 5 μM
[4] = system: hPSCs; settings: for Cell proliferation during neural differentiation: 5 and 10 μM, days 1 to 9, cell count day 9
[5] = system: HES‐3 (NKX2‐5eGFP/w reporter cell line); type: cell-based, human; settings: for Induction of cardiomyogenesis in HES-3 cells: 5 μM, days 3–5, day 13; for Percentage of NKX2‐5/GFP positive cells: HES-3, 5 μM (IWR-1: 2.5 μM), days 3–5, flow cytometry day 13, DMSO 14%
[6] = system: HES‐3 (NKX2–5eGFP/w reporter cell line); settings: 5 μM, days 3–5, image analysis on day 13
[7] = Permeability test: mass retention to the artificial membrane; type: in vitro ADME
[8] = biological target: T1, ALK5 (Homo sapiens, UniProt P36897); test: LanthaScreen Eu Kinase binding assay, ALK5; settings: for IC50: read-out: ALK5 IC50 ± SEM, mean ± SEM, triplicate
T1 sequence (P36897 34-503): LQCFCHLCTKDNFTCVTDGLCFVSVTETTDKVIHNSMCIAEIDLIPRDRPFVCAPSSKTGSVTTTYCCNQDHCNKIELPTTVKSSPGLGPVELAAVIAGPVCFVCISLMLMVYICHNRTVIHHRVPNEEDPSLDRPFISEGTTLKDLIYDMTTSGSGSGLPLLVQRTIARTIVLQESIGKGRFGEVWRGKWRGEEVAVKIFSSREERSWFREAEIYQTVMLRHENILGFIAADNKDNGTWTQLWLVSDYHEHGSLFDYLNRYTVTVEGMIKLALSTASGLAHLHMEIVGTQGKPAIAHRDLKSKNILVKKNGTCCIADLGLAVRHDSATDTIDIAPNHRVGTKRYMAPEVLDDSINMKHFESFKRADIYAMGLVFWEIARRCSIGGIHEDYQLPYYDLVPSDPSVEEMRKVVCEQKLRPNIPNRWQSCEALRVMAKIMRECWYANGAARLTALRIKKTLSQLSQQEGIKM

[9] = biological target: T2, TGFBR2 (Homo sapiens, UniProt P37173); settings: 1 μM compound
T2 sequence (P37173 23-567): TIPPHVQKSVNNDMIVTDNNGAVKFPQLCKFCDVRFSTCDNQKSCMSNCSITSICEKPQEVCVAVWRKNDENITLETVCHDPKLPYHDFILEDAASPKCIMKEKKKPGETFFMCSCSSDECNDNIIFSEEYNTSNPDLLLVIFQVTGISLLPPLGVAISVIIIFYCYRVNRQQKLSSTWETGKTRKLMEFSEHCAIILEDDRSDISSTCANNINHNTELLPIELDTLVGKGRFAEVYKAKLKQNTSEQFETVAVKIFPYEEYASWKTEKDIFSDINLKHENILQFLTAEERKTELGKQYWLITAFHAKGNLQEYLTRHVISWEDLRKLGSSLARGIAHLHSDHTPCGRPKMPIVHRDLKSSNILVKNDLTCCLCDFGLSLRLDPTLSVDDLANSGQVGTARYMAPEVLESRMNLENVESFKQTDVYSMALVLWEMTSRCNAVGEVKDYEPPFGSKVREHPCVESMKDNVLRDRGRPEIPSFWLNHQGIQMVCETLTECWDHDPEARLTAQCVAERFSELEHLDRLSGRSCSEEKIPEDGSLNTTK

[10] = system: SMAD2 phosphorylation (TGFβ pathway); settings: 5 μM, day 3, 30 minutes to 8 hours
[11] = system: SMAD/GFP reporter cell line (TGFβ pathway); settings: 5 μM, then TGFβ3 2, 100, 1000 ng/ml
[12] = system: NKX2‐5/GFP‐positive cells; settings: added from days 4 to 8; cited from earlier work
[13] = system: Wnt3a; test: Quantitative RT-PCR of Wnt3a expression during cardiac differentiation; type: cell-based, human; settings: CHIR99021 6 μM day 0, 1.5 μM day 1; SB203580 and TA-01 5 μM
[14] = system: BMPR1B kinase; settings: percentage of control; cited from earlier work
[15] = biological target: T2, TGFBR2; settings: cited from earlier work

O=C(Nc1cccc2cccnc12)c1ccc(N2C(=O)[C@@H]3[C@H](C2=O)[C@@H]2C=C[C@H]3C2)cc1 [IWR-1]
Cardiac differentiation in IMR-90 cells [1]: did not increase | Axin 1 and 2 expression ([2]; 2.5 μM): upregulation | NKX2‐5/cTnT‐positive cells [3]: approximately 80%

Fc1ccc(-c2c(-c3ccncc3)ncn2-c2ccccc2)cc1 [TI-38, 4-(5-(4-Fluorophenyl)-1-phenyl-1H-imidazol-4-yl)pyridine]
Cell proliferation during neural differentiation [4]: inhibit cell proliferation

Fc1ccc(Cl)cc1-c1nc(Nc2ccncc2)c2nccnc2n1 [SD208]
Cardiac differentiation in IMR-90 cells [1]: promoted cardiac differentiation | Induction of cardiomyogenesis in HES-3 cells [5]: failed to induce cardiomyogenesis | Cardiac differentiation in H1 cells [3]: promoted cardiac differentiation

Cc1cccc(-c2[nH]ncc2-c2ccc3ncccc3n2)n1 [RepSox]
Cardiac differentiation in IMR-90 cells [1]: promoted cardiac differentiation | Induction of cardiomyogenesis in HES-3 cells [5]: failed to induce cardiomyogenesis | Cardiac differentiation in H1 cells [3]: promoted cardiac differentiation

Cc1cccc(-c2[nH]ncc2-c2ccc(F)c(-c3cnn(CCO)c3)c2)n1 [Compound R268712]
Cardiac differentiation in IMR-90 cells [1]: promoted cardiac differentiation | Induction of cardiomyogenesis in HES-3 cells [5]: failed to induce cardiomyogenesis | Cardiac differentiation in H1 cells [3]: promoted cardiac differentiation

CCOC(=O)C1=C(C)NC2=C(C(=O)CC(C)(C)C2)C1c1ccc(-c2ccccc2)cc1 (stereo not shown) [ITD‐1]
Percentage of NKX2‐5/GFP positive cells [5]: 25% | Cell proliferation during neural differentiation [4]: inhibit cell proliferation | NKX2‐5/cTnT‐positive cells [3]: ~ 40%

Fc1ccc(-c2nc(-c3ccccc3)[nH]c2-c2ccncc2)cc1 [TI-14, 4-(4(5)-(4-Fluorophenyl)-2-phenyl-1H-imidazol-5(4)-yl)pyridine]
NKX2-5/GFP expression of EBs compared with TA-01 [6]: higher GFP expression than the lead compound TA‐01

Fc1ccc(-c2nc(-c3ccc4ccccc4c3F)[nH]c2-c2ccncc2)cc1 [TI-42, 4-(2-(1-Fluoronaphthalen-2-yl)-4(5)-(4-fluorophenyl)-1H-imidazol-5(4)-yl)pyridine]
Permeability compared with IWR-1 and CHIR99021 [7]: less permeable

COc1cccc(OC)c1-c1nc(-c2ccc(F)cc2)c(-c2ccncc2)[nH]1 [TI-18, 4-(2-(2,6-Dimethoxyphenyl)-4(5)-(4-fluorophenyl)-1H-imidazol-5(4)-yl)pyridine]
IC50 [8]: 0.747 µM

Fc1ccc(-c2nc(-c3c(F)cccc3Br)[nH]c2-c2ccncc2)cc1 [TI-21, 4-(2-(2-Bromo-6-fluorophenyl)-4(5)-(4-fluorophenyl)-1H-imidazol-5(4)-yl)pyridine]
IC50 [8]: 0.0109 µM | NKX2-5/GFP expression of EBs compared with TA-01 [6]: higher GFP expression than the lead compound TA‐01

COc1ccccc1-c1nc(-c2ccc(F)cc2)c(-c2ccncc2)[nH]1 [TI-16, 4-(2-(2-Methoxyphenyl)-4(5)-(4-fluorophenyl)-1H-imidazol-5(4)-yl)pyridine]
NKX2-5/GFP expression of EBs compared with TA-01 [6]: higher GFP expression than the lead compound TA‐01

O=[N+]([O-])c1cccc(Cl)c1-c1nc(-c2ccc(F)cc2)c(-c2ccncc2)[nH]1 [TI-24, 4-(2-(2-Chloro-6-nitrophenyl)-4(5)-(4-fluorophenyl)-1H-imidazol-5(4)-yl)pyridine]
IC50 [8]: 0.0131 µM | NKX2-5/GFP expression of EBs compared with TA-01 [6]: higher GFP expression than the lead compound TA‐01

Fc1ccc(-c2nc(C3CCCCC3)[nH]c2-c2ccncc2)cc1 [TI-34, 4-(2-Cyclohexyl-4(5)-(4-fluorophenyl)-1H-imidazol-5(4)-yl)pyridine]
Percentage inhibition of TGFBR2 at 1 μM [9]: 81%

Fc1ccc(-c2nc(-c3c(Cl)cccc3Cl)[nH]c2-c2ccncc2)cc1 [TI-15, 4-(2-(2,6-Dichlorophenyl)-4(5)-(4-fluorophenyl)-1H-imidazol-5(4)-yl)pyridine]
Percentage inhibition of TGFBR2 at 1 μM [9]: 80% | Phosphorylation of SMAD2 protein at Ser 465/467 [10]: significantly reduced | Cell proliferation during cardiac differentiation, dosing days 2–5 ([5]; days 2–5, data not shown): inhibition of cell proliferation | Cell growth during cardiac differentiation, dosing days 3–5 ([5]; days 3–5): does not inhibit cell growth | β‐catenin phosphorylation on Ser552/675 and downstream TCF‐1/LEF‐1 expression ([2]; 5 μM, day 3, 1, 4 and 8 hours after treatment): expression levels did not change | Cell growth during neural differentiation at 2.5 μM ([4]; 2.5 μM, days 1 to 9): not at the concentration of 2.5 μM | Cell proliferation during neural differentiation [4]: inhibit cell proliferation | Potency in the inhibition of ALK5 relative to TA‐01 ([8]; ratio of IC50 values): approximately 10 times | Numbers of GFP‐positive cells (nuclear SMAD/GFP reporter) [11]: reduced | Permeability compared with IWR-1 and CHIR99021 [7]: less permeable | NKX2-5/GFP expression of EBs compared with TA-01 [6]: higher GFP expression than the lead compound TA‐01

Fc1ccc(-c2nc(-c3c(F)cccc3I)[nH]c2-c2ccncc2)cc1 [TI-29, 4-(2-(2-Fluoro-6-iodophenyl)-4(5)-(4-fluorophenyl)-1H-imidazol-5(4)-yl)pyridine]
IC50 [8]: 0.0221 µM

Fc1ccc(-c2nc(-c3c(F)cccc3F)[nH]c2-c2ccncc2)cc1 [TA-01]
Percentage inhibition of TGFBR2 at 1 μM [9]: 91% | Percentage of NKX2‐5/GFP positive cells [5]: 30%–40% | Increase in the percentage expression of NKX2‐5/GFP‐positive cells over DMSO [12]: threefold | Permeability compared with IWR-1 and CHIR99021 [7]: less permeable | Suppression of Wnt3a expression on day 3 [13]: not observed | BMPR1B binding, POC at 10 μM [14]: 6.2 | TGFBR2 binding, percentage of control at 10 μM [15]: 1.6

Cc1ccc2nc(NC(=O)CSc3nc4c(c(=O)n3-c3ccccc3)SCC4)sc2c1 [IWP-2, reference compound]
NKX2-5/GFP expression of EBs compared with TA-01 [6]: higher GFP expression than the lead compound TA‐01

COc1cc(O)c(-c2nc(-c3ccc(F)cc3)c(-c3ccncc3)[nH]2)c(OC)c1 [TI-25, 2-(4(5)-(4-Fluorophenyl)-5(4)-(pyridin-4-yl)-1H-imidazol-2-yl)-3,5-dimethoxyphenol]
NKX2-5/GFP expression of EBs compared with TA-01 [6]: higher GFP expression than the lead compound TA‐01

O=[N+]([O-])c1ccccc1-c1nc(-c2ccc(F)cc2)c(-c2ccncc2)[nH]1 [TI-26, 4-(4(5)-(4-Fluorophenyl)-2-(2-nitrophenyl)-1H-imidazol-5(4)-yl)pyridine]
NKX2-5/GFP expression of EBs compared with TA-01 [6]: higher GFP expression than the lead compound TA‐01

Cc1c[nH]c(-c2cnc(NCCNc3ccc(C#N)cn3)nc2-c2ccc(Cl)cc2Cl)n1 [CHIR99021]
Suppression of Wnt3a expression on day 3 [13]: expression of Wnt3a was suppressed

COc1cccc(F)c1-c1nc(-c2ccc(F)cc2)c(-c2ccncc2)[nH]1 [TI-20, 4-(2-(2-Fluoro-6-methoxyphenyl)-4(5)-(4-fluorophenyl)-1H-imidazol-5(4)-yl)pyridine]
NKX2-5/GFP expression of EBs compared with TA-01 [6]: higher GFP expression than the lead compound TA‐01

Cc1cccc(C)c1-c1nc(-c2ccc(F)cc2)c(-c2ccncc2)[nH]1 [TI-27, 4-(2-(2,6-Dimethylphenyl)-4(5)-(4-fluorophenyl)-1H-imidazol-5(4)-yl)pyridine]
NKX2-5/GFP expression of EBs compared with TA-01 [6]: higher GFP expression than the lead compound TA‐01

Fc1ccc(-c2nc(-c3ccc4ccccc4c3Br)[nH]c2-c2ccncc2)cc1 [TI-33, 4-(2-(1-Bromonaphthalen-2-yl)-4(5)-(4-fluorophenyl)-1H-imidazol-5(4)-yl)pyridine]
NKX2-5/GFP expression of EBs compared with TA-01 [6]: higher GFP expression than the lead compound TA‐01

C[S+]([O-])c1ccc(-c2nc(-c3ccncc3)c(-c3ccc(F)cc3)[nH]2)cc1 (stereo not shown) [SB203580]
Suppression of Wnt3a expression on day 3 [13]: not observed
